Consider 25 molecules from patent US20220041578A1, “ISOINDOLINE COMPOUND, AND PREPARATION METHOD, PHARMACEUTICAL COMPOSITION, AND APPLICATION OF ISOINDOLINE COMPOUND” (Shanghai Institute of Meteria Medica, Chinese Academy of …, priority 2018, published 2022).

Bounds are passed on as bounds.

This experiment relates to MM.1S cells. Put plainly: Effect of the compound on the proliferation of MM.1S cells (MTS). It counts as cell-based. Conditions: Homo sapiens, MM1.S, 168 h, 7 days, read-out: Cell inhibitory activity (IC50). The method, then: MM.1S cells were cultured with 1640 plus 10% fetal bovine serum and collected. The cell concentration was diluted according to the action time of 7 days, and 180 ul cell suspension was added to each well of the 96-well cell plate to make the cell count to be 20,000. 20 ul of DMSO with a final concentration of 0.2% was added to the control cell wells. The compound was diluted 5-fold with the 10 mM stock solution, and 20 ul was also added to the compound cell wells (the final concentration of DMSO is 0.2%). The cells were placed in a 37° C., 5% CO2 incubator and incubated for 7 days. After preparing the reaction solution according to the MTS kit (Promega, G5430), 20 μL was added to each well, incubated in a 37° C., 5% CO2 incubator for 3-4 h. Read the 490 nm absorbance value with a microtiter plate, and used the 690 nm absorbance value as the background value and OD490-OD690 as the final initial data. The formula for calculating the inhibition rate of the compound is: inhibition rate=(OD DMSO-ODcompound)/(ODDMSO-Oblank)×100%. The compound's proliferation inhibition IC50 was fitted by Graph Pad Prism 5.0. The experiment was repeated three times, and three parallel experiments were used to calculate the average and standard deviation each time.
With `O=C1CCC(N2Cc3c(OCCc4cn(-c5ccc(OC(F)(F)F)cc5)nn4)cccc3C2=O)C(=O)N1` (stereo not shown) [Compound 61, 3-(1-oxo-4-(2-(1-(4-(trifluoromethoxy)phenyl)-1H-1,2,3-triazol-4-)ethoxy)isoindoline-2-) piperidine-2,6-dione], the half-inhibitory concentration (IC50) (usually the midpoint of a concentration-inhibition curve) is below 150 nM. Take `O=C1CCC(N2Cc3c(CCc4cnc(-c5ccc(OC(F)(F)F)cc5)o4)cccc3C2=O)C(=O)N1` (stereo not shown) [Compound 62, 3-(1-oxo-4-(2-(2-(4-(trifluoromethoxy)phenyl)oxazol-5-yl)ethyl)isoindolin-2-yl) piperidine-2,6-dione]: the IC50 is below 150 nM. As to `O=C1CCC(N2Cc3c(CCCc4cnc(-c5ccc(OC(F)(F)F)cc5)o4)cccc3C2=O)C(=O)N1` (stereo not shown) [Compound 63, 3-(1-oxo-4-(3-(2-(4-(trifluoromethoxy)phenyl)oxazol-5-yl)propyl)isoindolin-2-yl) piperidine-2,6-dione], the IC50 was above 20000 nM. Take `O=C1CCC(N2Cc3c(OCC4CN(c5ccc(OC(F)(F)F)cc5)C4)cccc3C2=O)C(=O)N1` (stereo not shown) [Compound 64, 3-(1-oxo-4-((1-(4-trifluoromethoxyphenyl)azetidin-3-)methoxy)isoindolin-2-) piperidine-2,6-dione]: the IC50 lay within 150 to 20000 nM. As to `O=C1CCC(N2Cc3c(OC[C@H]4CCN(c5ccnc6ccccc56)C4)cccc3C2=O)C(=O)N1` (stereo partly drawn) [Compound 65, 3-(1-oxo-4-(((S)-1-(quinolin-4-)pyrrolin-3-)methoxy)isoindolin-2-) piperidine-2,6-dione], the IC50 fell in the range of 150 to 20000 nM. `O=C1CCC(N2Cc3c(OC[C@@H]4CCN(c5ccnc6ccccc56)C4)cccc3C2=O)C(=O)N1` (stereo partly drawn) [Compound 66, 3-(1-oxo-4-(((R)-1-(quinolin-4-)pyrrolin-3-)methoxy)isoindolin-2-) piperidine-2,6-dione]: the IC50 lay within 150 to 20000 nM. Turning to `O=C1CCC(N2Cc3c(OCC4CCN(c5ccnc6ccccc56)CC4)cccc3C2=O)C(=O)N1` (stereo not shown) [Compound 67, 3-(1-oxo-4-((1-(quinolin-4-)piperidin-4-)methoxy)isoindolin-2-) piperidin-2,6-dione], the IC50 was below 150 nM.

As to `O=C1CCC(N2Cc3c(OCCC4CCN(c5ccnc6ccccc56)CC4)cccc3C2=O)C(=O)N1` (stereo not shown) [Compound 68, 3-(1-oxo-4-(2-(1-(quinolin-4-)piperidin-4-)ethoxy)isoindolin-2-) piperidin-2,6-dione], the IC50 is below 150 nM. As to `O=C1CCC(N2Cc3c(OCCC4CN(c5ccnc6ccccc56)C4)cccc3C2=O)C(=O)N1` (stereo not shown) [Compound 69, 3-(1-oxo-4-(2-(1-(quinolin-4-)azetidin-3-)ethoxy)isoindolin-2-) piperidine-2,6-dione], the half-maximal inhibitory concentration (IC50) was 150 to 20000 nM. With `O=C1CCC(N2Cc3c(OCC4CCC(c5ccc(OC(F)(F)F)cc5)CC4)cccc3C2=O)C(=O)N1` (stereo not shown) [Compound 72, 3-(1-oxo-4-((4-(4-(trifluoromethoxy)phenyl)cyclohexyl)methoxy)isoindolin-2-) piperidine-2,6-dione] the figure was below 150 nM. As for `O=C1CCC(N2Cc3c(OCC4CCN(c5ccc(OC(F)(F)F)cc5)CC4)cccc3C2=O)C(=O)N1` (stereo not shown) [Compound 73, 3-(1-oxo-4-((1-(4-(trifluoromethoxy)phenyl)piperidin-4-)methoxy)isoindolin-2-) piperidin-2,6-dione], the 50% inhibitory concentration (IC50) is below 150 nM. `[2H]c1c([2H])c([2H])c(-n2cc(COc3cccc4c3CN(C3CCC(=O)NC3=O)C4=O)nn2)c([2H])c1[2H]` (stereo not shown) [Compound 78, 3-(1-oxo-4-((1-(phenyl-D5)-1H-1,2,3-triazol-4-yl)methoxy)isoindolin-2-yl) piperidine-2,6-dione]: the 50% inhibitory concentration (IC50) is below 150 nM. For `[2H]c1c([2H])c([2H])c(-n2cc(COc3cc(F)cc4c3CN(C3CCC(=O)NC3=O)C4=O)nn2)c([2H])c1[2H]` (stereo not shown) [Compound 79, 3-(6-fluoro-1-oxo-4-((1-(phenyl-D5)-1H-1,2,3-triazol-4-yl)methoxy)isoindolin-2-yl) piperidine-2,6-dione], the IC50 is below 150 nM. For the molecule `O=C1CCC(N2Cc3c(OCc4cnc(-c5ccc(OC(F)(F)F)cc5)o4)cc(F)cc3C2=O)C(=O)N1` (stereo not shown) [Compound 80, 3-(6-fluoro-1-oxo-4-((2-(4-(trifluoromethoxy)phenyl)oxazol-5-yl)methoxy)isoindolin-2-yl) piperidine-2,6-dione], the concentration for half-maximal inhibition (IC50) is below 150 nM. As to `O=C1CCC(N2Cc3c(NCc4cnc(-c5ccc(OC(F)(F)F)cc5)o4)cccc3C2=O)C(=O)N1` (stereo not shown) [Compound 82], the half-inhibitory concentration (IC50) was below 150 nM. For `Cc1c(COc2cccc3c2CN(C2CCC(=O)NC2=O)C3=O)cnn1-c1c(Cl)cc(C(F)(F)F)cc1Cl` (stereo not shown) [Compound 83] the value was below 150 nM; for `Cc1c(COc2cccc3c2CN(C2CCC(=O)NC2=O)C3=O)cnn1-c1c(Cl)cc(OC(F)(F)F)cc1Cl` (stereo not shown) [Compound 84, 3-(4-((1-(2,6-dichloro-4-(trifluoromethoxy)phenyl)-5-methyl-1H-pyrazol-4-yl)methoxy)-1-isoindolin-2-1) piperidine-2,6-dione], below 150 nM.

Turning to `Cc1cc(COc2cccc3c2CN(C2CCC(=O)NC2=O)C3=O)nn1-c1c(Cl)cc(OC(F)(F)F)cc1Cl` (stereo not shown) [Compound 85, 3-(4-((1-(2,6-dichloro-4-(trifluoromethoxy)phenyl)-5-methyl-1H-pyrazol-3-yl)methoxy)-1-isoindolin-2-yl)piperidine-2,6-dione], the IC50 is below 150 nM.

For `O=C1CCC(N2Cc3c(OCc4cn(C56CC7CC(CC(O)(C7)C5)C6)nn4)cccc3C2=O)C(=O)N1` [Compound 86, 3-(4-((1-((1R, 3S, 5R, 7S)-3-hydroxyadamantan-1-yl)-1H-1,2,3-triazol-4-yl)methoxy)-1-isoindolin-pyridin-2-yl) piperidin-2,6-dione], the half-inhibitory concentration (IC50) was above 20000 nM. As for `O=C1CCC(N2Cc3c(OCc4cn(C5C6CC7CC(C6)CC5C7)nn4)cccc3C2=O)C(=O)N1` [Compound 87, 3-(4-((1-((1R, 3R, 5R, 7R)-adamantan-2-yl)-1H-1,2,3-triazol-4-yl)methoxy)-1-isoindolin-2-yl) piperidin-2,6-dione], the concentration for half-maximal inhibition (IC50) is below 150 nM. For `CC(n1cc(COc2cccc3c2CN(C2CCC(=O)NC2=O)C3=O)nn1)C12CC3CC(CC(C3)C1)C2` [Compound 88, 3-(4-((1-(1-((1S, 3S)-adamantan-1-yl)ethyl)-1H-1,2,3-triazol-4-yl)methoxy)-1-isoindolin-2-yl) piperidin-2,-6-dione] the value was below 150 nM; for `C[C@]12CC3CC(n4cc(COc5cccc6c5CN(C5CCC(=O)NC5=O)C6=O)nn4)(C1)C[C@@](C)(C3)C2` (stereo partly drawn) [Compound 89, 3-(4-((1-((1R, 3R, 5S, 7R)-3,5-dimethyladamantin-1-yl)-1H-1,2,3-triazol-4-yl)methoxy)-1-isoindolin-2-yl) piperidin-2,6-dione], above 20000 nM.

With `O=C1CCC(N2Cc3c(OCc4cnc(-c5ccc(Cl)c(Cl)c5)o4)cccc3C2=O)C(=O)N1` (stereo not shown) [Compound 91, 3-(4-((2-(3,4-dichlorophenyl)oxazol-5-yl)methoxy)-1-oxoisoindol-2-yl) piperidine-2,6-dione], the half-maximal inhibitory concentration (IC50) was below 150 nM.

In the case of `O=C1CCC(N2Cc3c(OCc4cn(-c5ccc(OC6CC6)cc5F)nn4)cccc3C2=O)C(=O)N1` (stereo not shown) [Compound 92, 3-(4-((1-(4-cyclopropoxy-2-fluorophenyl)-1H-1,2,3-triazol-4-yl)methoxy)-1-oxoisoindol-2-yl) piperidine-2,6-dione], the IC50 was 150 to 20000 nM. With `O=C1CCC(N2Cc3c(NCc4cnc(-c5ccccc5OC(F)(F)F)o4)cccc3C2=O)C(=O)N1` (stereo not shown) [Compound 94] the figure was 150 to 20000 nM.
